Laboratory results published in patent US20210277015A1, “OGA INHIBITOR COMPOUNDS” (Janssen Pharmaceutica NV, priority 2018, published 2021).

What was measured:
[1] = biological target: T1, recombinant human Meningioma Expressed Antigen 5 (MGEA5), also referred to as O-GlcNAcase (OGA) (Homo sapiens, UniProt O60502); assay: OGA biochemical assay (inhibition of FM-GlcNAc hydrolysis, fluorescence); conditions: FM-GlcNAc substrate; for IC50: 6 h at room temperature, read-out: Enzymatic hOGA, pIC50 (converted); for Emax: read-out: Enzymatic Emax (%)
T1 construct: Full length OGA enzyme was purchased at OriGene (cat #TP322411); purchased OriGene TP322411
T1 sequence (O60502 1-916): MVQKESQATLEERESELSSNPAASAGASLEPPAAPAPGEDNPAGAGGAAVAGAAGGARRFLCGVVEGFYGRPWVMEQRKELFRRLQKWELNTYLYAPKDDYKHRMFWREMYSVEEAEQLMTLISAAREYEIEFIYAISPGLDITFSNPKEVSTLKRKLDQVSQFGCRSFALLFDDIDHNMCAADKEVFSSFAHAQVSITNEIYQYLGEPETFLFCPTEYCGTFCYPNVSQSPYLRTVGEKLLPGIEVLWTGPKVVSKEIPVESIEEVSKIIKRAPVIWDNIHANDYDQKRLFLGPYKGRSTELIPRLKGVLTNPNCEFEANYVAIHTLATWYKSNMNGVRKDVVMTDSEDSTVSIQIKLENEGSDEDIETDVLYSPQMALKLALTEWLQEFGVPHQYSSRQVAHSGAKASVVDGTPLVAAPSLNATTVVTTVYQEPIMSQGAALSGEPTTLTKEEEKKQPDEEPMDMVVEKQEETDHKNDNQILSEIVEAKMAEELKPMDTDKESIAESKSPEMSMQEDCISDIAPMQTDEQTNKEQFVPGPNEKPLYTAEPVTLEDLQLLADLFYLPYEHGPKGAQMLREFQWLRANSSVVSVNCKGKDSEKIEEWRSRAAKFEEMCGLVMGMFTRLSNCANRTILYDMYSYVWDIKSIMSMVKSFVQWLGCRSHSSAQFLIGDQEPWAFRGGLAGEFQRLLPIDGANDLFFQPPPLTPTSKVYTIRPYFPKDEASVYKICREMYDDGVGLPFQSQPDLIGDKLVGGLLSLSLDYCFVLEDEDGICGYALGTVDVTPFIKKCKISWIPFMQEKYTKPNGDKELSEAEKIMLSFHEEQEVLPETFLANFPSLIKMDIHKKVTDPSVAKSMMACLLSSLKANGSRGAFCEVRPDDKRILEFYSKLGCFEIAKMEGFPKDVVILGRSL
Text: The assay is based on the inhibition of the hydrolysis of fluorescein mono-β-D-N-Acetyl-Glucosamine (FM-GlcNAc) (Mariappa et al. 2015, Biochem J 470:255) by the recombinant human Meningioma Expressed Antigen 5 (MGEA5), also referred to as O-GlcNAcase (OGA). The hydrolysis FM-GlcNAc (Marker Gene technologies, cat #M1485) results in the formation of β-D-N-glucosamineacetate and fluorescein. The fluorescence of the latter can be measured at excitation wavelength 485 nm and emission wavelength 538 nm. An increase in enzyme activity results in an increase in fluorescence signal. Full length OGA enzyme was purchased at OriGene (cat #TP322411). The enzyme was stored in 25 mM Tris.HCl, pH 7.3, 100 mM glycine, 10% glycerol at −20° C. Thiamet G and GlcNAcStatin were tested as reference compounds (Yuzwa et al. 2008 Nature Chemical Biology 4:483; Yuzwa et al. 2012 Nature Chemical Biology 8:393). The assay was performed in 200 mM Citrate/phosphate buffer supplemented with 0.005% Tween-20. 35.6 g Na2HPO4 2 H2O (Sigma, #C0759) were dissolved in 1 L water to obtain a 200 mM solution. 19.2 g citric acid (Merck, #1.06580) was dissolved in 1 L water to obtain a 100 mM solution. pH of the sodium phosphate solution was adjusted with the citric acid solution to 7.2. The buffer to stop the reaction consists of a 500 mM Carbonate buffer, pH 11.0. 734 mg FM-GlcNAc were dissolved in 5.48 mL DMSO to obtain a 250 mM solution and was stored at −20° C. OGA was used at a 2 nM concentration and FM-GlcNAc at a 100 uM final concentration. Dilutions were prepared in assay buffer.
50 nl of a compound dissolved in DMSO was dispensed on Black Proxiplate™ 384 Plus Assay plates (Perkin Elmer, #6008269) and 3 μl fl-OGA enzyme mix added subsequently. Plates were pre-incubated for 60 min at room temperature and then 2 μl FM-GlcNAc substrate mix added. […] Plates were briefly centrifuged for 1 min at 1000 rpm and incubate at room temperature for 6 h. To stop the reaction 5 μl STOP buffer were added and plates centrifuge again 1 min at 1000 rpm. Fluorescence was quantified in the Thermo Scientific Fluoroskan Ascent or the PerkinElmer EnVision with excitation wavelength 485 nm and emission wavelength 538 nm.
For analysis a best-fit curve is fitted by a minimum sum of squares method. From this an IC50 value and Hill coefficient was obtained. High control (no inhibitor) and low control (saturating concentrations of standard inhibitor) were used to define the minimum and maximum values.

OGA = biological target: T2, OGA (Homo sapiens, UniProt O60502); assay: OGA cellular assay (ICC detection of O-GlcNAcylated proteins in HEK293 cells inducible for P301L mutant human Tau); type: cell-based; conditions: for Emax: HEK293, HEK293 cells inducible for P301L mutant human Tau; for EC50: 6 hours incubation, ICC O-GlcNAcylation, read-out: Cellular hOGA, pEC50 (converted)
T2 construct: endogenous in cells; host or cells: HEK293 cells inducible for P301L mutant human Tau (isoform 2N4R)
T2 sequence (O60502 1-916): T1 sequence (O60502 1-916)
Experimental: HEK293 cells inducible for P301L mutant human Tau (isoform 2N4R) were established at Janssen. Thiamet-G was used for both plate validation (high control) and as reference compound (reference EC50 assay validation). OGA inhibition is evaluated through the immunocytochemical (ICC) detection of O-GlcNAcylated proteins by the use of a monoclonal antibody (CTD110.6; Cell Signaling, #9875) detecting O-GlcNAcylated residues as previously described (Dorfmueller et al. 2010 Chemistry & biology, 17:1250). Inhibition of OGA will result in an increase of O-GlcNAcylated protein levels resulting in an increased signal in the experiment. Cell nuclei are stained with Hoechst to give a cell culture quality control and a rough estimate of immediate compounds toxicity, if any. ICC pictures are imaged with a Perkin Elmer Opera Phenix plate microscope and quantified with the provided software Perkin Elmer Harmony 4.1.
Cells were propagated in DMEM high Glucose (Sigma, #D5796) following standard procedures. 2 days before the cell assay cells are split, counted and seeded in Poly-D-Lysine (PDL) coated 96-wells (Greiner, #655946) plate at a cell density of 12,000 cells per cm^2 (4,000 cells per well) in 100 μl of Assay Medium (Low Glucose medium is used to reduce basal levels of GlcNAcylation) (Park et al. 2014 The Journal of biological chemistry 289:13519). At the day of compound test medium from assay plates was removed and replenished with 90 μl of fresh Assay Medium. 10 μl of compounds at a 10 fold final concentration were added to the wells. Plates were centrifuged shortly before incubation in the cell incubator for 6 hours. DMSO concentration was set to 0.2%. Medium is discarded by applying vacuum. For staining of cells medium was removed and cells washed once with 100 μl D-PBS (Sigma, #D8537). From next step onwards unless other stated assay volume was always 50 μl and incubation was performed without agitation and at room temperature. Cells were fixed in 50 μl of a 4% paraformaldehyde (PFA, Alpha aesar, #043368) PBS solution for 15 minutes at room temperature. […] Before analysis samples were washed 2 times manually for 5 minutes in ICC base buffer.
Imaging is performed using Perkin Elmer Phenix Opera using a water 20× objective and recording 9 fields per well. Intensity readout at 488 nm is used as a measure of O-GlcNAcylation level of total proteins in wells. To assess potential toxicity of compounds nuclei were counted using the Hoechst staining. IC50-values are calculated using parametric non-linear regression model fitting. As a maximum inhibition Thiamet G at a 200 uM concentration is present on each plate. In addition, a concentration response of Thiamet G is calculated on each plate.

[2] = maximum defined by Thiamet G at 200 uM
[3] = HEK293 cells inducible for P301L mutant human Tau

| Structure (SMILES) | IC50 [1] [nM] | Emax ([1]; maximal effect) [%] | Emax (OGA; [2]) [%] | EC50 (OGA; [3]) [nM] | Enzymatic Emax (%) ([1]; maximal effect) | Cellular Emax (%) (OGA; HEK293 cells inducible for P301L mutant human Tau, maximum defined by Thiamet G at 200 uM) |
| --- | --- | --- | --- | --- | --- | --- |
| Cc1cc(C[C@@H]2CCN(C(C)c3nc4c(cc3F)OCCO4)C2)cc(C)n1 (mixture of isomers) [Product 79] | 7.94 | 98 | 85 | 100 | – | – |
| Cc1cc(C[C@H]2CCN(C(C)c3cnc4c(c3)OCCN4)C2)cc(C)n1 (mixture of isomers) [Product 80] | 39.8 | 101 | 71 | 398 | – | – |
| COc1cc(C[C@H]2CCN(C(C)c3nc4c(cc3F)CCO4)C2)cc(C)n1 (mixture of isomers) [Product 83] | 5.01 | 102 | 89 | 31.6 | – | – |
| COc1cc(C[C@H]2CCN(C(C)c3ccc4c(n3)OCCC4)C2)cc(C)n1 (mixture of isomers) [Product 86] | 158 | 101 | 50 | 741 | – | – |
| COc1cc(C[C@@H]2CCN(C(C)c3nc4c(cc3F)OCCO4)C2)cc(C)n1 (mixture of isomers) [Product 90] | 12.6 | 101 | 90 | 126 | – | – |
| Cc1cc(CO[C@@H]2CCN(C(C)c3ccc4c(n3)OCCO4)C2)cc(C)n1 (mixture of isomers) [Product 115] | 631 | 94 | 9 | > 1000 | – | – |
| Cc1cc(C[C@@H]2CCN(C(C)c3cnc4c(c3)OCCO4)C2)cc(C)n1 (mixture of isomers) [Product 116] | 158 | 97 | 20 | > 1000 | – | – |
| Cc1cc(C[C@@H]2CCN(C(C)c3cc4c(cc3F)NCCO4)C2)cc(C)n1 (mixture of isomers) [Product 117] | 15.8 | 99 | 60 | 316 | – | – |
| Cc1cc(C[C@@H]2CCN(C(C)c3cnc4c(c3)OCCN4)C2)cc(C)n1 (mixture of isomers) [Product 118] | 31.6 | 100 | 49 | 631 | – | – |
| Cc1cc(OC[C@H]2CCN(C(C)c3nc4c(cc3F)OCCO4)C2)cc(C)n1 (mixture of isomers) [Product 119] | 100 | 100 | 59 | 631 | – | – |
| Cc1cc(C[C@H]2CN(C(C)c3ccc4c(n3)OCCO4)C[C@@H]2C)cc(C)n1 (mixture of isomers) [Product 60] | 79.4 | 99 | 44 | > 1000 | – | – |
| Cc1cc(C[C@H]2CN(C(C)c3ccc4c(n3)OCCO4)C[C@@H]2C)cc(C)n1 (mixture of isomers) [Product 61] | 126 | – | – | 794 | 97 | 56 |
| Cc1cc(O[C@@H]2CCN(C(C)c3ccc4c(n3)OCCO4)C2)cc(C)n1 (mixture of isomers) [Product 73] | 79.4 | 99 | 33 | > 1000 | – | – |
| COc1cc(C[C@H]2CCN([C@@H](C)c3cc4c(cc3F)NCCO4)C2)cc(C)n1 (racemic) [Product 82] | 10 | 101 | 81 | 251 | – | – |
| Cc1cc(C[C@@H]2CCN([C@H](C)c3cc4c(cc3F)OCCO4)C2)cc(C)n1 [Product 44] | 251 | 99 | – | – | – | – |
| Cc1cc(OC[C@@H]2CCN(C(C)c3ccc4c(n3)OCCO4)C2)cc(C)n1 (stereo partly shown) [Product 46] | 251 | 97 | – | – | – | – |
| COc1cc(O[C@H]2CCN(C(C)c3ccc4c(n3)OCCO4)C2)cc(C)n1 (stereo partly shown) [Product 63] | 1000 | 95 | – | – | – | – |
| Cc1cc(OCC2(C)CCN(C(C)c3ccc4c(n3)OCCO4)C2)cc(C)n1 (stereo not shown) [Product 77] | 794 | 94 | – | – | – | – |
